Results on three compounds are retold here after patent US20090216187A1, “Method of Treatment of Vascular Diseases” (priority 2008, published 2009).

Data set [1] in a line: renal elimination after incorporation (animal experimental data). It is filed as in vivo. From the text:
To date one accidental Rhenium-188 incorporation caused by balloon rupture has been reported. The measured total body dose of the treated patient was 113 mGy (image-based analysis) and 88 mGy (biological analysis), respectively. Thus, the measured radiation exposures were within the theoretical calculated ranges. [Paeng J. C., Lee D. S., Kang W. J., Yang H. M., Chung J. K., Jeong J. M., Chae I. H., Lee M. M., Lee M. C. “Dosimetry in leakage of (188)Re-DTPA during intracoronary balloon brachytherapy” Eur. J. Nucl. Med. Mol. Imaging. 2003; 30(9): 1263-1265]. […] Therefore, Rhenium-188 will remain in the body for about 2 days after incorporation. In the body Rhenium-188 is mainly absorbed by the thyroid (0.0167 mGy/MBq) and the stomach (0.013 mGy/MBq) [Knapp F. F., Jr., Guhlke S., Beets A. L., Lin W. Y., Stabin M., Amols H., Weinberger J. “Endovascular beta irradiation for prevention of restenosis using solution radioisotopes: pharmacologic and dosimetric properties of rhenium-188 compounds.” Cardiovasc. Radiat. Med. 1999; 1(1): 86-97; Lin W. Y., Tsai S. C., Hsieh B. T. Lee T. W., Ting G., Wang S. J “Evaluation of three rhenium-188 candidates for intravascular radiation therapy with liquid-filled balloons to prevent restenosis” J. Nucl. Cardiol. 2000; 7(1): 37-42]. […]

For data set [2] the following is noted: patient after balloon rupture, cited from earlier work.
The conditions of data set [3]: renal elimination after incorporation; animal experimental data; cited from earlier work.
For data set [4] the following is noted: cited from earlier work.
For data set [5] the following is noted: subsequent oral administration of perchlorate after Rhenium-188 incorporation; cited from earlier work.
For data set [6] the following is noted: complete accidental incorporation of a balloon filling of about 3 ml; cited from earlier work.

Where two headings read alike, the source gives them in different places.

On to `[188Re]` [Rhenium-188], for which the “time remaining in the body after incorporation” value in data set [1] is “about 2 days”. For the same compound, the “measured total body dose” value in data set [2] (biological analysis) was 88 mGy; in data set [2] (image-based analysis), 113 mGy. The elimination half-life entry in data set [3] is reported as “about 7 h”. The absorbed dose in data set [4] (stomach) was 0.013 mGy/MBq; in data set [4] (thyroid), 0.0167 mGy/MBq.

Take `[O-][Cl+3]([O-])([O-])O` [perchlorate]: the “whole-body radiation reduced to” value in data set [5] is given as 38%.

Regarding Rhenium-188-DPTA, in data set [6], the “theoretical calculated total body dose” value is “approximately 63 mGy”.
